Source: US8889684B2, “Azaindolylphenyl sulfonamides as serine/threonine kinase inhibitors” (Boehringer Ingelheim International GmbH, priority 2011, dated 2014)

What follows are compounds tested against B-Raf (V600E)-kinase (Homo sapiens (Human), UniProt P15056, V600E) (assay: Kinase test B-Raf (V600E)). Conditions: 250 μM ATP, biotinylated MEK1 substrate.
Assay type: biochemical
Experimental: Kinase test B-Raf (V600E)
In a dilution series 10 μL/well of test substance solution are placed in a multiwell plate. The dilution series is selected so that generally a range of concentrations of 2 μM to 0.119 nM or 0.017 nM is covered. If necessary the initial concentration of 2 μM is changed to 50 μM, 10 μM, 0.4 μM or 0.2857 μM and further dilution is carried out accordingly. The final concentration of DMSO is 5%. 10 μL/well of the B-Raf (V600E)-kinase solution are pipetted in (containing 0.5 ng B-Raf (V600E)-kinase, e.g. from Upstate) in 20 mM Tris-HCl pH 7.5, 0.1 mM EDTA, 0.1 mM EGTA, 0.286 mM sodium orthovanadate, 10% glycerol, 1 mg/mL bovine serum albumin, 1 mM dithiothreitol) and the mixture is incubated for 1 h at RT with shaking. The kinase reaction is started by the addition of 20 μL/well ATP solution [final concentration: 250 μM ATP, 30 mM Tris-HCl pH 7.5, 0.02% Brij, 0.2 mM sodium orthovanadate, 10 mM magnesium acetate, 0.1 mM EGTA, phosphatase cocktail (Sigma, #P2850, dilution recommended by the manufacturer)] and 10 μL/well MEK1 solution [containing 50 ng biotinylated MEK1 (prepared from purified MEK1 according to standard procedure, e.g. with EZ-Link Sulpho-NHS-LC-Biotin reagent, Pierce, #21335)] and carried out for 60 min at RT with constant shaking. The reaction is stopped by the addition of 12 μL/well of a 100 mM EDTA solution and incubation is continued for a further 5 min. 55 μL/well of the reaction solution are transferred into a streptavidin-coated plate (e.g. Streptawell HighBond, Roche, #11989685001) and gently shaken for 1 h at RT in order to bind biotinylated MEK1 to the plate. After elimination of the liquid the plate is washed five times with 200 μL/well of 1×PBS and 100 μL/well solution of primary antibody plus europium-labelled secondary antibody [Anti Phospho-MEK (Ser217/221), Cell Signaling, #9121 and Eu—N1 labelled goat-anti-rabbit antibody, Perkin Elmer, #AD0105] is added, the primary antibody is diluted 1:2000 and the secondary antibody is diluted to 0.4-0.5 μg/mL in Delfia Assay Buffer (Perkin Elmer, #1244-111). After 1 h shaking at RT the solution is poured away and washed five times with 200 μL/well Delfia Wash Buffer (Perkin Elmer, #4010-0010/#1244-114). After the addition of 200 μL/well Enhancement Solution (Perkin Elmer, #4001-0010/#1244-105) the mixture is shaken for 10 min at RT and then measured in a Wallac Victor using the program “Delfia Time Resolved Fluorescence (Europium)”. IC50 values are obtained from these dosage-activity curves using a software program (GraphPadPrizm).

Sequence of B-Raf (V600E)-kinase (P15056 whole entry V600E): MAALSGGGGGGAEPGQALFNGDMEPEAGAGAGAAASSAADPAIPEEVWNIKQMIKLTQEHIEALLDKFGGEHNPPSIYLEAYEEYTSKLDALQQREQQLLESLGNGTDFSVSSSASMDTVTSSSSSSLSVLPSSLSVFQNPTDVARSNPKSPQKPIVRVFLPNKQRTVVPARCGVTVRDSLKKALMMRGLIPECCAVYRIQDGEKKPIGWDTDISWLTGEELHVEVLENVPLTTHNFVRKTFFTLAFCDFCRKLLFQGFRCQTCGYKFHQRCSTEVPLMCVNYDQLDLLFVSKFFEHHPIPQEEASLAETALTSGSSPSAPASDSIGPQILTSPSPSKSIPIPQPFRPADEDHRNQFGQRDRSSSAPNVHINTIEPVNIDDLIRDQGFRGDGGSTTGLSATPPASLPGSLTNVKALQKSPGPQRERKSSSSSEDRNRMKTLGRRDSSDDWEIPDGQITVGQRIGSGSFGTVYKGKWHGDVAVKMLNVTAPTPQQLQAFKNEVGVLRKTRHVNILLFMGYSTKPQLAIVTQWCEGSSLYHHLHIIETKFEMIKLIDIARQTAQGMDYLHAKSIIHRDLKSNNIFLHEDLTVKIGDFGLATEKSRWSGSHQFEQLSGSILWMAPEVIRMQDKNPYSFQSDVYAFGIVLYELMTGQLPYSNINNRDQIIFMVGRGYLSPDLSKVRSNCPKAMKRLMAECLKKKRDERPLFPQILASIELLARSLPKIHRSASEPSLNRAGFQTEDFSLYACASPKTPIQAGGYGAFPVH

SMILES	IC50 [nM]
CCCS(=O)(=O)Nc1ccc(F)c(-n2cc(-c3cncnc3)c3nc(N(C)C4CCN(CC)CC4)ncc32)c1F [I-9]	16
CCCS(=O)(=O)Nc1ccc(F)c(-n2cc(-c3cncc(OC)c3)c3nc(N4CCN(C)CC4)ccc32)c1F [I-3]	297
CCCS(=O)(=O)Nc1ccc(F)c(-n2cc(-c3cncnc3)c3nc(N(C)C4CCN(C5CC5)CC4)ncc32)c1F [I-10]	29
CCCS(=O)(=O)Nc1ccc(F)c(-n2cc(-c3cncnc3)c3nc(N(C)C4CCNCC4)ncc32)c1F [I-12]	41
CCCS(=O)(=O)Nc1ccc(F)c(-n2cc(-c3cncnc3)c3nc(N(C)C4CCN(C)CC4)ncc32)c1F [I-8]	4
CCCS(=O)(=O)Nc1ccc(F)c(-n2cc(-c3cncc(OC)c3)c3nc(N4CCN(C)CC4)ncc32)c1F [I-6]	1610

Further lines, results first:

IC50 [nM]	SMILES
125	CCCS(=O)(=O)Nc1ccc(F)c(-n2cc(-c3cncc(OC)c3)c3nc(N4CCN(CCOC)CC4)ccc32)c1F [I-4]
16	CCCS(=O)(=O)Nc1ccc(F)c(-n2cc(-c3cncc(OC)c3)c3nc(N(C)C4CCN(C)CC4)cnc32)c1F [I-5]
7	CCCS(=O)(=O)Nc1ccc(F)c(-n2cc(-c3cncc(OC)c3)c3nc(N(C)C4CCN(C)CC4)ncc32)c1F [I-7]
42	CCCS(=O)(=O)Nc1ccc(F)c(-n2cc(-c3cncnc3)c3nc(N(C)C4CCN(CCOC)CC4)ncc32)c1F [I-11]

What follows are compounds tested on SK-MEL-28 cells (assay: Inhibition of the proliferation of cultivated human melanoma cells (SK-MEL-28, B-RAF V600E mutated)). Conditions: 72 h incubation, AlamarBlue.
Assay type: cell-based
Experimental: Measurement of the Inhibition of the Proliferation of Cultivated Human Melanoma cells (SK-MEL-28, B-RAF^V600E Mutated)
SK-MEL-28 cells are placed in 96-well flat bottomed dishes in a density of 2500 cells per well in supplemented MEM medium (see above) and incubated overnight in an incubator (at 37° C. and 5% CO2). […] After an incubation period of a further 72 h 20 μL AlamarBlue reagent (Serotec Ltd., #BUF012B) are added to each well and the cells are incubated for a further 3-6 h. The colour change of the AlamarBlue reagent is determined in a fluorescence spectrophotometer (e.g. Gemini, Molecular Devices). EC50 values are calculated using a software program (GraphPadPrizm).

SMILES	EC50 [nM]
CCCS(=O)(=O)Nc1ccc(F)c(-n2cc(-c3cncnc3)c3nc(N(C)C4CCN(CC)CC4)ccc32)c1F [I-42]	0.84
O=S(=O)(CC1CCCO1)Nc1ccc(F)c(-n2cc(-c3cncnc3)c3nc(N4CCNCC4)ccc32)c1F (stereo not drawn) [I-15]	181
CN1CCC(N(C)c2ccc3c(n2)c(-c2cncnc2)cn3-c2c(F)ccc(NS(=O)(=O)C3CC3)c2F)CC1 [I-32]	2
[2H]C([2H])([2H])N(c1ccc2c(n1)c(-c1cncnc1)cn2-c1c(F)ccc(NS(=O)(=O)CCC)c1F)C1CCN(C([2H])([2H])C([2H])([2H])[2H])CC1 [I-44]	1
CCN1CCN(c2ccc3c(n2)c(-c2cncnc2)cn3-c2c(F)ccc(NS(=O)(=O)CC3CCCO3)c2F)CC1 (stereo not drawn) [I-16]	491
CN(c1ccc2c(n1)c(-c1cncnc1)cn2-c1c(F)ccc(NS(=O)(=O)C2CC2)c1F)C1CCN(C(=O)OC(C)(C)C)CC1 [I-22]	112
[2H]C([2H])([2H])C([2H])([2H])N1CCC(N(C)c2ccc3c(n2)c(-c2cncnc2)cn3-c2c(F)ccc(NS(=O)(=O)CCC)c2F)CC1 [I-46]	3
CCCS(=O)(=O)Nc1ccc(F)c(-n2cc(-c3cncnc3)c3nc(N(C)C4CCNCC4)ccc32)c1F [I-14]	6
CCCS(=O)(=O)Nc1ccc(F)c(-n2cc(-c3cncnc3)c3nc(N(C)C4CCN(CC)CC4)ncc32)c1F [I-9]	11
CCCS(=O)(=O)Nc1ccc(F)c(-n2cc(-c3cncnc3)c3nc(N(C)C4CCN(C)CC4)ccc32)c1F [I-30]	2
CCCS(=O)(=O)Nc1ccc(F)c(-n2cc(-c3cncc(OC)c3)c3nc(N4CCN(C)CC4)ccc32)c1F [I-3]	114
CCCS(=O)(=O)Nc1ccc(F)c(-n2cc(-c3cncnc3)c3nc(N(C)C4CCN(CC)CC4)ccc32)c1Cl [I-47]	2
CN(c1ncc2c(n1)c(-c1cncnc1)cn2-c1c(F)ccc(NS(=O)(=O)CC2CC2)c1F)C1CCNCC1 [I-19]	110
CCN1CCN(c2ccc3c(n2)c(-c2cncnc2)cn3-c2c(F)ccc(NS(=O)(=O)CC3CC3)c2F)CC1 [I-18]	90
CCCS(=O)(=O)Nc1ccc(F)c(-n2cc(-c3cncnc3)c3nc(N(C)C4CCNCC4)ncc32)c1F [I-12]	60
CCCS(=O)(=O)Nc1ccc(F)c(-n2cc(-c3cncnc3)c3nc(N(C)C4CCN(C)CC4)ncc32)c1F [I-8]	6
CCCS(=O)(=O)Nc1ccc(F)c(-n2cc(-c3cncc(OC)c3)c3nc(N4CCN(C)CC4)ncc32)c1F [I-6]	121
CN1CCN(c2ccc3c(n2)c(-c2cncnc2)cn3-c2c(F)ccc(NS(=O)(=O)CC3CCCO3)c2F)CC1 (stereo not drawn) [I-17]	386
[2H]C([2H])([2H])N(c1ccc2c(n1)c(-c1cncnc1)cn2-c1c(F)ccc(NS(=O)(=O)CCC)c1F)C1CCN(CC)CC1 [I-41]	1

More lines, now with the values ahead:

EC50 [nM]	SMILES
89	CCCS(=O)(=O)Nc1ccc(F)c(-n2cc(-c3cncnc3)c3nc(N4CCN(CC)CC4)ncc32)c1F [I-21]
86	CCCS(=O)(=O)Nc1ccc(F)c(-n2cc(-c3cncnc3)c3nc(N(C)C4CCN(C(=O)OC(C)(C)C)CC4)ccc32)c1F [I-13]
73	CCCS(=O)(=O)Nc1ccc(F)c(-n2cc(-c3cncnc3)c3nc(N4CCNCC4)ncc32)c1F [I-26]
72	CN1CCN(c2ccc3c(n2)c(-c2cncnc2)cn3-c2c(F)ccc(NS(=O)(=O)CC3CC3)c2F)CC1 [I-20]
68	CCCS(=O)(=O)Nc1ccc(F)c(-n2cc(-c3cncnc3)c3nc(N4CCN(C)CC4)ncc32)c1F [I-24]
63	CCCS(=O)(=O)Nc1ccc(F)c(-n2cc(-c3cncc(OC)c3)c3nc(N4CCN(CCOC)CC4)ccc32)c1F [I-4]
54	CCCS(=O)(=O)Nc1ccc(F)c(-n2cc(-c3cncnc3)c3nc(N4CCN(CC5CC5)CC4)ncc32)c1F [I-27]
41	CCCS(=O)(=O)Nc1ccc(F)c(-n2cc(-c3cncnc3)c3nc(N4CCN(C5CC5)CC4)ccc32)c1F [I-29]
41	CCCS(=O)(=O)Nc1ccc(F)c(-n2cc(-c3cncc(OC)c3)c3nc(N(C)C4CCN(C)CC4)cnc32)c1F [I-5]
40	CCCS(=O)(=O)Nc1ccc(F)c(-n2cc(-c3cncc(OC)c3)c3nc(N(C)C4CCN(C)CC4)ncc32)c1F [I-7]
40	CCCS(=O)(=O)Nc1ccc(F)c(-n2cc(-c3cncnc3)c3nc(N4CCN(CC)CC4)ccc32)c1F [I-23]
31	CCCS(=O)(=O)Nc1ccc(F)c(-n2cc(-c3cncnc3)c3nc(N4CCN(CC5CC5)CC4)ccc32)c1F [I-31]
27	O=S(=O)(CC1CC1)Nc1ccc(F)c(-n2cc(-c3cncnc3)c3nc(N4CCNCC4)ccc32)c1F [I-25]
21	CCCS(=O)(=O)Nc1ccc(F)c(-n2cc(-c3cncnc3)c3nc(N(C)C4CCN(CCOC)CC4)ncc32)c1F [I-11]
14	CCCS(=O)(=O)Nc1ccc(F)c(-n2cc(-c3cncnc3)c3nc(N4CCNCC4)ccc32)c1F [I-33]
7	CCCS(=O)(=O)Nc1ccc(F)c(-n2cc(-c3cncnc3)c3nc(N(C)C4CCN(CC(C)(C)O)CC4)c(F)cc32)c1F [I-36]
7	CN(c1ncc2c(n1)c(-c1cncnc1)cn2-c1c(F)ccc(NS(=O)(=O)CC2CC2)c1F)C1CCN(CC2CC2)CC1 [I-28]
6	CCCS(=O)(=O)Nc1ccc(F)c(-n2cc(-c3cncnc3)c3nc(N(C)C4CCN(CCOC)CC4)c(F)cc32)c1F [I-35]
5	CCCS(=O)(=O)Nc1ccc(F)c(-n2cc(-c3cncnc3)c3nc(N(C)C4CCN(C5COC5)CC4)ncc32)c1F [I-38]
5	CCCS(=O)(=O)Nc1ccc(F)c(-n2cc(-c3cncnc3)c3nc(N(C)C4CCN(CC5CC5)CC4)ncc32)c1F [I-43]
5	CCCS(=O)(=O)Nc1ccc(F)c(-n2cc(-c3cncnc3)c3nc(N(C)C4CCN(CC(C)(C)O)CC4)ccc32)c1F [I-45]
3	CCCS(=O)(=O)Nc1ccc(F)c(-n2cc(-c3cncnc3)c3nc(N(C)C4CCN(CC)CC4)c(F)cc32)c1F [I-40]
2	CCCN1CCC(N(C)c2ccc3c(n2)c(-c2cncnc2)cn3-c2c(F)ccc(NS(=O)(=O)CCC)c2F)CC1 [I-34]
2	CCCS(=O)(=O)Nc1ccc(F)c(-n2cc(-c3cncnc3)c3nc(N(C)C4CCN(CC5CC5)CC4)ccc32)c1F [I-37]
0.47	CN(c1ncc2c(n1)c(-c1cncnc1)cn2-c1c(F)ccc(NS(=O)(=O)c2ccoc2)c1F)C1CCN(CC2CC2)CC1 [I-39]
